Data as given in patent US11059800B2, “Dehydroleucodine derivatives and uses thereof” (Bioventures, LLC, priority 2013, dated 2021).

Test system: eight human leukemia cell lines
Description: Cell lines were cultured in Iscove's Modified Dulbecco's Medium (IMDM) supplemented with 10%˜20% fetal bovine serum (FBS) according to culture conditions indicated by ATCC and 1% penicillin/streptomycin (Pen/Strep) at 37° C. and 5% CO2. The cells were seeded into 96-well plates and kept at a concentration of 0.5 million cells per mL. […] Cell viability was determined after incubating for 48 hours. The cells were stained with annexin V-fluorescein isothiocyanate or phycoeritrine (FITC/PE) and 7-aminoactinomycin (7-AAD) to detect phosphatidylserine exposition and cell permeability, respectively. At least 50,000 events were recorded per condition on either an LSR-II or LSR-Fortessa flow cytometer (BD Biosciences). Data analysis was conducted using FlowJo 9.6 software for Mac OS X (TreeStar). Cells that were negative for annexin V and 7-AAD were scored as viable.

SMILES: C=C1C(=O)O[C@@H]2[C@H]3C(C)=CC(=O)C3=C(C)CC[C@@H]12 [DHL, dehydroleucodine]
- anti-leukemic activity / in vitro cytotoxicity: more potent anti-leukemic activity than PTL in most samples
- LD50 values in the various leukemic cell lines tested (range over the AML cell lines, 48 hours of treatment): 5.02 to 18.95 µM
